Results as given in patent US20230241044A1, “TREATMENT FOR PSORIASIS AND SKIN INFLAMMATORY DISEASES” (ZYDUS LIFESCIENCES LIMITED, priority 2020, published 2023).

Tests used:
[1] = system: IMQ-induced psoriasis-like skin lesions in mice; assay: Imiquimod-induced psoriasis in mice, topical treatment; type: in vivo, male C57 mice; conditions: topical 5% solution
Description: The 8 to 10 week old male C57 mice (18-20 g) received a daily topical dose of commercially available Imiquimod (IMQ) cream (5%, Imiquad;) on the shaved back and the right ear for 5 consecutive days, translating in a daily dose of 3.125 mg of the active compound to establish a model of IMQ-induced psoriasis. To examine the efficacy of topical solution of compound of formula (Ia), mice were randomly divided into 3 groups: IMQ-induced model group (IMQ) and IMQ + 5% compound of formula (Ia) solution and control group. Treatment was started on day 1 after the topical application of IMQ and continued upto day 5. All animals were assessed for the severity of the psoriasis-like skin condition, using 3 elements of the Psoriasis Area Severity Index (PASI), to assign a score of 0-4 (0, none; 1, mild; 2, moderate; 3, severe; 4, very severe) for each of the parameters erythema, scaling and thickness. The cumulative score (erythema plus scaling plus thickness) served to indicate the severity of inflammation (scale 0-12). Ear thickness was measured every day using thickness meter.

[2] = system: Mannan-induced psoriasis in mice; assay: Mannan-induced psoriasis in mice, topical treatment; type: in vivo, male C57 mice; conditions: topical 2.5% solution, day 5, FIG. 3
Description: The 8- to 10-week-old male C57 mice (18-20 g) received a single dose of mannan from Saccharomyces cerevisiae (20 mg/kg, intraperitoneal route, dissolved in saline). To examine the efficacy of topical solution of desidustat, mice were randomly divided into 3 groups: Normal control, mannan control- model group (MAN control), and mannan (MAN) + 2.5% compound of formula (Ia) solution. Normal control animals were given normal saline instead of mannan. Treatment was started on day 0 along with injection of mannan and continued up to day 5. Right ear thickness was measured every day using thickness meter.

HIF = conditions: animal model of anemia; Jain et al., 2019; Joharapurkar et al., 2018; cited from earlier work
[3] = clinical trials; cited from earlier work

## O=C(O)CNC(=O)c1c(O)c2ccccc2n(OCC2CC2)c1=O [compound of formula (Ia), Desidustat]
[1]; FIG. 2B
  reduction of back skinfold thickness compared to IMQ: 15.5 ± 4.0%
[1]; cumulative score, FIG. 1D
  PASI score decreased to, compared with IMQ-control: 41.9 ± 7.6%
[1]; day 1 to day 5, FIG. 1A-C
  reduction of erythema score (second mention) compared with IMQ-control: 63.6 ± 11.5%
  reduction of erythema score compared with IMQ-control: 46.2 ± 7.7%
  reduction of skin thickness score compared with IMQ-control: 26.3 ± 10.4%
[1]; right ear, FIG. 2A
  thickening of the ear reduced to, compared to IMQ-control: 30.8 ± 2.6%
[2]
  reduction of right ear thickness compared to MAN control group: 15.8 ± 2.5%
HIF
  effect on HIF and erythropoiesis: stabilizes HIF and thus induces erythropoiesis
[3]
  effect on haemoglobin: improves haemoglobin
